# Reference: PubChem BioAssay AID1963849 (Molecular Pharmacology Branch, DTP, NCI, 2024)
# pIC50: −log10 of the molar value.
# Test system: 299254-011-R-J1-PDC complex spheroid viability
# Assay: Anticancer human tumor 299254-011-R-J1-PDC patient-derived melanoma cell line growth inhibition [POLQ]
# Conditions: for pIC50: curve of first compound; for viability, T/C: stronger effect = lower value
# Method in brief: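 Patient-derived tumour cells were co-cultured with HUVEC and mesenchymal stem cells as multicellular spheroids at 37 °C. They were treated with POLQ inhibitors (novobiocin, ART-558, RP6685) alone or combined with other agents. Top concentrations were at or near clinical Cmax (otherwise 10 microM; SN-38 at 1 microM), decreasing in half-log steps.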
# [1] = second compound 0.0316 µM, first compound 0.0316 µM
# [2] = second compound 0.0316 µM, first compound 0.1 µM
# [3] = second compound 0.0316 µM, first compound 0.316 µM
# [4] = second compound 0.0316 µM, first compound 1 µM
# [5] = second compound 0.0316 µM, first compound 3.16 µM
# [6] = second compound 0.0316 µM, first compound 10 µM
# [7] = second compound 0.1 µM, first compound 0.0316 µM
# [8] = second compound 0.1 µM, first compound 0.1 µM
# [9] = second compound 0.1 µM, first compound 0.316 µM
# [10] = second compound 0.1 µM, first compound 1 µM
# [11] = second compound 0.1 µM, first compound 3.16 µM
# [12] = second compound 0.1 µM, first compound 10 µM
# [13] = second compound 0.316 µM, first compound 0.0316 µM
# [14] = second compound 0.316 µM, first compound 0.1 µM
# [15] = second compound 0.316 µM, first compound 0.316 µM
# [16] = second compound 0.316 µM, first compound 1 µM
# [17] = second compound 0.316 µM, first compound 3.16 µM
# [18] = second compound 0.316 µM, first compound 10 µM
# [19] = second compound 1 µM, first compound 0.0316 µM
# [20] = second compound 1 µM, first compound 0.1 µM
# [21] = second compound 1 µM, first compound 0.316 µM
# [22] = second compound 1 µM, first compound 1 µM
# [23] = second compound 1 µM, first compound 3.16 µM
# [24] = second compound 1 µM, first compound 10 µM
# [25] = second compound 3.16 µM, first compound 0.0316 µM
# [26] = second compound 3.16 µM, first compound 0.1 µM
# [27] = second compound 3.16 µM, first compound 0.316 µM
# [28] = second compound 3.16 µM, first compound 1 µM
# [29] = second compound 3.16 µM, first compound 3.16 µM
# [30] = second compound 3.16 µM, first compound 10 µM
# [31] = second compound 10 µM, first compound 0.0316 µM
# [32] = second compound 10 µM, first compound 0.1 µM
# [33] = second compound 10 µM, first compound 0.316 µM
# [34] = second compound 10 µM, first compound 1 µM
# [35] = second compound 10 µM, first compound 3.16 µM
# [36] = second compound 10 µM, first compound 10 µM
# 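Note: spheroids exposed to drugs for one week before measurement.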
# 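Throughout, for viability, T/C: percent viability relative to DMSO vehicle control taken as 100%.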
smiles,measurement,setting,value
C=CC(=O)N1CCN(c2nc(=O)n(-c3c(C)ccnc3C(C)C)c3nc(-c4c(O)cccc4F)c(F)cc23)C(C)C1 (stereo unspecified) + COC1C(OC(N)=O)C(O)C(Oc2ccc3c(O)c(NC(=O)c4ccc(O)c(CC=C(C)C)c4)c(=O)oc3c2C)OC1(C)C,pIC50,second compound 0.0316 µM,< 5.00
same,pIC50,second compound 0.1 µM,< 5.00
same,pIC50,second compound 0.316 µM,< 5.00
same,pIC50,second compound 1 µM,< 5.00
same,pIC50,second compound 3.16 µM,< 5.00
same,pIC50,second compound 10 µM,< 5.00
same,"viability, T/C",[1],75.8%
same,"viability, T/C",[2],72.7%
same,"viability, T/C",[3],64.3%
same,"viability, T/C",[4],66.3%
same,"viability, T/C",[5],69%
same,"viability, T/C",[6],65.1%
same,"viability, T/C",[7],73.9%
same,"viability, T/C",[8],69.6%
same,"viability, T/C",[9],64.8%
same,"viability, T/C",[10],63.1%
same,"viability, T/C",[11],59.4%
same,"viability, T/C",[12],73.4%
same,"viability, T/C",[13],91.4%
same,"viability, T/C",[14],75.5%
same,"viability, T/C",[15],69.7%
same,"viability, T/C",[16],66.6%
same,"viability, T/C",[17],70.4%
same,"viability, T/C",[18],54.2%
same,"viability, T/C",[19],83.5%
same,"viability, T/C",[20],70.7%
same,"viability, T/C",[21],60.7%
same,"viability, T/C",[22],73.3%
same,"viability, T/C",[23],66.1%
same,"viability, T/C",[24],70.3%
same,"viability, T/C",[25],77.1%
same,"viability, T/C",[26],65.5%
same,"viability, T/C",[27],62.3%
same,"viability, T/C",[28],64.7%
same,"viability, T/C",[29],69.3%
same,"viability, T/C",[30],60.1%
same,"viability, T/C",[31],82.9%
same,"viability, T/C",[32],74.5%
same,"viability, T/C",[33],63.5%
same,"viability, T/C",[34],58.7%
same,"viability, T/C",[35],62.5%
same,"viability, T/C",[36],56.8%
CC(C)n1c(=O)n(C)c2cnc3cc(F)c(-c4ccc(OCCCN5CCCCC5)nc4)cc3c21 + COC1C(OC(N)=O)C(O)C(Oc2ccc3c(O)c(NC(=O)c4ccc(O)c(CC=C(C)C)c4)c(=O)oc3c2C)OC1(C)C,pIC50,second compound 0.0316 µM,< 5.00
same,pIC50,second compound 0.1 µM,< 5.00
same,pIC50,second compound 0.316 µM,< 5.00
same,pIC50,second compound 1 µM,< 5.00
same,pIC50,second compound 3.16 µM,< 5.00
same,pIC50,second compound 10 µM,< 5.00
same,"viability, T/C",[1],145%
same,"viability, T/C",[2],129%
same,"viability, T/C",[3],109%
same,"viability, T/C",[4],126%
same,"viability, T/C",[5],112%
same,"viability, T/C",[6],111%
same,"viability, T/C",[7],113%
same,"viability, T/C",[8],127%
same,"viability, T/C",[9],128%
same,"viability, T/C",[10],131%
same,"viability, T/C",[11],112%
same,"viability, T/C",[12],91.2%
same,"viability, T/C",[13],121%
same,"viability, T/C",[14],147%
same,"viability, T/C",[15],117%
same,"viability, T/C",[16],121%
same,"viability, T/C",[17],114%
same,"viability, T/C",[18],110%
same,"viability, T/C",[19],113%
same,"viability, T/C",[20],111%
same,"viability, T/C",[21],132%
same,"viability, T/C",[22],107%
same,"viability, T/C",[23],112%
same,"viability, T/C",[24],82.9%
same,"viability, T/C",[25],112%
same,"viability, T/C",[26],130%
same,"viability, T/C",[27],116%
same,"viability, T/C",[28],118%
same,"viability, T/C",[29],123%
same,"viability, T/C",[30],102%
same,"viability, T/C",[31],126%
same,"viability, T/C",[32],128%
same,"viability, T/C",[33],139%
same,"viability, T/C",[34],128%
same,"viability, T/C",[35],135%
same,"viability, T/C",[36],115%
CC1COCCN1c1cc(C2(S(C)(=N)=O)CC2)nc(-c2ccnc3[nH]ccc23)n1 (stereo unspecified) + COC1C(OC(N)=O)C(O)C(Oc2ccc3c(O)c(NC(=O)c4ccc(O)c(CC=C(C)C)c4)c(=O)oc3c2C)OC1(C)C,pIC50,second compound 0.0316 µM,5.22
same,pIC50,second compound 0.1 µM,5.24
same,pIC50,second compound 0.316 µM,5.16
same,pIC50,second compound 1 µM,5.26
same,pIC50,second compound 3.16 µM,5.14
same,pIC50,second compound 10 µM,5.17
same,"viability, T/C",[1],110%
same,"viability, T/C",[2],116%
same,"viability, T/C",[3],102%
same,"viability, T/C",[4],85.3%
same,"viability, T/C",[5],66.5%
same,"viability, T/C",[6],38.1%
same,"viability, T/C",[7],110%
same,"viability, T/C",[8],95%
same,"viability, T/C",[9],111%
same,"viability, T/C",[10],106%
same,"viability, T/C",[11],60.9%
same,"viability, T/C",[12],39.9%
same,"viability, T/C",[13],98.9%
same,"viability, T/C",[14],98.7%
same,"viability, T/C",[15],110%
same,"viability, T/C",[16],106%
same,"viability, T/C",[17],69.9%
same,"viability, T/C",[18],41%
same,"viability, T/C",[19],112%
same,"viability, T/C",[20],122%
same,"viability, T/C",[21],109%
same,"viability, T/C",[22],85.8%
same,"viability, T/C",[23],65%
same,"viability, T/C",[24],35.7%
same,"viability, T/C",[25],101%
same,"viability, T/C",[26],122%
same,"viability, T/C",[27],105%
same,"viability, T/C",[28],101%
same,"viability, T/C",[29],70.4%
same,"viability, T/C",[30],41.8%
same,"viability, T/C",[31],122%
same,"viability, T/C",[32],103%
same,"viability, T/C",[33],109%
same,"viability, T/C",[34],90.9%
same,"viability, T/C",[35],73.6%
same,"viability, T/C",[36],37.6%
